Values of other authors as cited in publication PMC3726058 (European journal of pharmacology, 2010).

Tests used:
[1] = system: σ1 versus σ2; conditions: rat brain membranes; ref Klouz et al., 2003; Matsuno et al., 1996
[2] = molecular target: histamine H1; conditions: read-out: Ki H1; ref Yous et al., 2005
[3] = molecular target: adrenergic α2; conditions: read-out: Ki α2; ref Yous et al., 2005
[4] = system: σ1 over the σ2 subtype; conditions: ref Bowen, 1993

In the case of `COc1ccc(CN2CCN(Cc3ccccc3)CC2)c(O)c1OC` [BHDP], the “affinity for σ1 versus σ2” value [1] is listed as “approximately 100 fold”.
For `COc1ccc(CCN2CCN(CCCc3ccccc3)CC2)cc1OC` [SA4503], the “affinity for σ1 versus σ2” value [1] is given as “approximately 100 fold”.
For `CCCc1ccc2c(c1)sc(=O)n2CCN1CCCCCC1` [SN56, 3-(2-(azepan-1-yl)ethyl)-6-propylbenzo[d]thiazol-2(3H)-one], the Ki [2] is given as 311 nM and the Ki [3] is given as 205 nM.
In the case of `CC(C)=CCN1CC[C@]2(C)c3cc(O)ccc3C[C@H]1[C@H]2C` [[^3H](+)-Pentazocine], the “preference for σ1 over σ2 subtype” value [4] is given as over 700 fold.
